Measurements as given in BindingDB's records for doi:10.1021/acsmedchemlett.1c00391 (Glaxosmithkline, 2021).

Experiments:
[1] = Inhibition of HCV genotype 1b NS5A infected in HuH-7-Luc/Neo-ET cells assessed as reduction in viral replication measured by Luciferase reporter gene assay
[2] = Inhibition of HCV genotype 1a NS5A infected in HuH-7-Luc/Neo-ET cells assessed as reduction in viral replication measured by Luciferase reporter gene assay

COC(=O)N[C@H]1CCC[C@H]2CC[C@@H](c3ncc(-c4ccc(-c5ccc(-c6cnc([C@@H]7CCCN7C(=O)[C@@H](NC(=O)OC)C(C)C)[nH]6)cc5)cc4)[nH]3)N2C1=O
EC50 [1]: 0.109 nM
EC50 [2]: 17 nM

COC(=O)N[C@H](C(=O)N1CCC[C@H]1c1ncc(-c2ccc(-c3ccc(-c4cnc([C@@H]5CC[C@@H]6CCC[C@@H](NC(=O)OC)C(=O)N65)[nH]4)cc3)cc2)[nH]1)C(C)C
EC50 [1]: 0.133 nM
EC50 [2]: 12 nM

COC(=O)N[C@H](C(=O)N1CCC[C@H]1c1ncc(-c2ccc(-c3ccc(-c4cnc([C@@H]5CC[C@H]6CCC[C@@H](NC(=O)OC)C(=O)N65)[nH]4)cc3)cc2)[nH]1)C(C)C
EC50 [1]: 0.059 nM
EC50 [2]: 0.673 nM

COC(=O)N[C@H]1CCC[C@@H]2CC[C@@H](c3ncc(-c4ccc(-c5ccc(-c6cnc([C@@H]7CCCN7C(=O)[C@@H](NC(=O)OC)C(C)C)[nH]6)cc5)cc4)[nH]3)N2C1=O
EC50 [1]: 0.037 nM
EC50 [2]: 0.471 nM

COC(=O)N[C@H]1CCC[C@H]2CC[C@@H](c3ncc(-c4ccc(-c5ccc(-c6cnc([C@@H]7CC8(CN7C(=O)[C@@H](NC(=O)OC)C(C)C)OCCO8)[nH]6)cc5)cc4)[nH]3)N2C1=O
EC50 [1]: 0.046 nM
EC50 [2]: 8.6 nM

COC(=O)N[C@H](C(=O)N1CC2(C[C@H]1c1ncc(-c3ccc(-c4ccc(-c5cnc([C@@H]6CC[C@@H]7CCC[C@@H](NC(=O)OC)C(=O)N76)[nH]5)cc4)cc3)[nH]1)OCCO2)C(C)C
EC50 [1]: 0.08 nM
EC50 [2]: 15 nM

COC(=O)N[C@H](C(=O)N1CC2(C[C@H]1c1ncc(-c3ccc(-c4ccc(-c5cnc([C@@H]6CC[C@H]7CCC[C@@H](NC(=O)OC)C(=O)N76)[nH]5)cc4)cc3)[nH]1)OCCO2)C(C)C
EC50 [1]: 0.047 nM
EC50 [2]: 0.707 nM

COC(=O)N[C@H]1CCC[C@@H]2CC[C@@H](c3ncc(-c4ccc(-c5ccc(-c6cnc([C@@H]7CC8(CN7C(=O)[C@@H](NC(=O)OC)C(C)C)OCCO8)[nH]6)cc5)cc4)[nH]3)N2C1=O
EC50 [1]: 0.064 nM
EC50 [2]: 1.5 nM

COC(=O)N[C@H](C(=O)N1CC2(C[C@H]1c1ncc(-c3ccc(-c4ccc(-c5cnc([C@@H]6CC[C@@H]7CCC[C@H](N(C)C)C(=O)N76)[nH]5)cc4)cc3)[nH]1)OCCO2)C(C)C
EC50 [1]: 0.209 nM
EC50 [2]: 32 nM

COC(=O)N[C@H](C(=O)N1CC2(C[C@H]1c1ncc(-c3ccc(-c4ccc(-c5cnc([C@@H]6CC[C@@H]7CCC[C@@H](N(C)C)C(=O)N76)[nH]5)cc4)cc3)[nH]1)OCCO2)C(C)C
EC50 [1]: 0.217 nM
EC50 [2]: 119 nM

COC(=O)N[C@H](C(=O)N1CC2(C[C@H]1c1ncc(-c3ccc(-c4ccc(-c5cnc([C@@H]6CC[C@H]7CCC[C@@H](N(C)C)C(=O)N76)[nH]5)cc4)cc3)[nH]1)OCCO2)C(C)C
EC50 [1]: 0.298 nM
EC50 [2]: 11 nM

COC(=O)N[C@H](C(=O)N1CC2(C[C@H]1c1ncc(-c3ccc(-c4ccc(-c5cnc([C@@H]6CC[C@H]7CCC[C@H](N(C)C)C(=O)N76)[nH]5)cc4)cc3)[nH]1)OCCO2)C(C)C
EC50 [1]: 0.084 nM
EC50 [2]: 7.7 nM

COC(=O)N[C@H](C(=O)N1CCC[C@H]1c1nc(-c2ccc(-c3ccc(-c4c[nH]c([C@@H]5CCCN5C(=O)[C@@H](NC(=O)OC)C(C)C)n4)cc3)cc2)c[nH]1)C(C)C [BMS-790052]
EC50 [1]: 0.032 nM
EC50 [2]: 0.079 nM
